Measured values as given in the supplement of paper PMC4858399.

Key:
Conditions in all cases: exposure time 48 h
[1] = system: Caenorhabditis elegans N2; assay: mean nematode size ln(EXT) after 48 h, plate-adjusted (DMSO control set to 6) (ln(EXT), control-adjusted); higher = larger nematodes / less growth inhibition
Procedure, shortened: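 Worms were measured individually for extinction on the Biosort after 48 h at 20°C. They began as synchronised C. elegans N2 L1 larvae in K-medium with killed OP50, 1% DMSO and 0.5–200 µM chemical. Once debris had been removed by a growth model, values were natural-logged and averaged per well to give mean size. The plate adjustment subtracted the vehicle control mean and added 6.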

[2] = system: Caenorhabditis elegans N2; assay: AC50 for larval growth inhibition (Hill fit); higher = less potent
Procedure, shortened: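 Synchronised C. elegans N2 L1 larvae (50 per well, 96-well plates) were grown for 48 h at 20°C in K-medium with killed OP50, 1% DMSO and 0.5–200 µM chemical. The COPAS Biosort measured each worm's size as extinction, which was log-transformed and averaged per well. AC50 came from a constrained Hill fit by weighted genetic-algorithm regression on wells with at least 10 worms. Out-of-range values are censored.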

[3] = system: Caenorhabditis elegans N2; assay: lowest effective concentration for larval growth inhibition (size below effect threshold); higher = less potent
Procedure, shortened: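 Worm size was taken as per-worm extinction on the Biosort, log-transformed and turned into well means. The larvae (C. elegans N2, L1 stage, 50 per 96-well) had spent 48 h at 20°C in K-medium with killed bacteria, 1% DMSO and 0.5, 1, 5, 10, 50, 100 or 200 µM chemical. The lowest effective concentration marks the first dose where the plate-adjusted mean size drops under a cutoff and remains under it at every higher dose; the cutoff is 5.665.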

Row | Structure (SMILES) | mean nematode size ln(EXT) (ln) ([1]; 0.5 µM) | mean nematode size ln(EXT) (ln) ([1]; 1 µM) | mean nematode size ln(EXT) (ln) ([1]; 5 µM) | mean nematode size ln(EXT) (ln) ([1]; 10 µM) | mean nematode size ln(EXT) (ln) ([1]; 50 µM) | mean nematode size ln(EXT) (ln) ([1]; 100 µM) | mean nematode size ln(EXT) (ln) ([1]; 200 µM) | AC50 for larval growth inhibition [2] | lowest effective concentration [3]
1 | CCc1nn(C)c(C(=O)NCc2ccc(C(C)(C)C)cc2)c1Cl [Tebufenpyrad] | 4.96 | 5.23 | 3.83 | 3.7 | 3.95 | 4.11 | 3.36 | 1.03 µM | ≤ 0.5 µM
2 | CCOP(=S)(Oc1cnc(C(C)(C)C)nc1)OC(C)C (stereo unspecified) [Tebupirimfos] | 6 | 6.01 | 5.89 | 5.76 | 4.5 | 3.66 | 3.56 | 46.5 µM | 50 µM
3 | CNC(=O)N(C)c1nnc(C(C)(C)C)s1 [Tebuthiuron] | 5.83 | 5.93 | 5.89 | 5.93 | 5.95 | 5.92 | 5.44 | 129 µM | 200 µM
4 | CC/C(=N\OC/C=C/Cl)C1=C(O)CC(C2CCOCC2)CC1=O (stereo unspecified) [Tepraloxydim] | 5.72 | 5.89 | 5.74 | 5.83 | 5.77 | 5.86 | 5.43 | > 200 µM | 200 µM
5 | Cc1[nH]c(=O)n(C(C)(C)C)c(=O)c1Cl [Terbacil] | 5.34 | 5.77 | 5.2 | 5.76 | 5.1 | 5.87 | 5.23 | > 200 µM | 200 µM
6 | CCNc1nc(Cl)nc(NC(C)(C)C)n1 [Terbuthylazin] | 6 | 5.99 | 5.96 | 5.95 | 5.65 | 5.58 | 5.22 | > 200 µM | 50 µM
7 | FC(F)C(F)(F)OCC(Cn1cncn1)c1ccc(Cl)cc1Cl (stereo unspecified) [Tetraconazole] | 5.81 | 5.97 | 5.98 | 5.65 | 4.91 | 4.36 | 4.07 | 48.5 µM | 10 µM
8 | CN(C)[C@@H]1C(=O)C(C(N)=O)=C(O)[C@@]2(O)C(=O)C3=C(O)c4c(O)cccc4[C@@](C)(O)[C@H]3C[C@@H]12 [Tetracycline] | 6.03 | 6.08 | 6.03 | 6.05 | 6.06 | 5.64 | 4.89 | 103 µM | 100 µM
9 | CC(C)=CC1C(C(=O)OCN2C(=O)C3=C(CCCC3)C2=O)C1(C)C (stereo unspecified) [Tetramethrin] | 5.94 | 5.96 | 6.03 | 6.01 | 5.76 | 4.97 | 4.57 | 78.6 µM | 100 µM
